The values that follow come from patent US8008329B2 (Dong Wha Pharmaceutical Co., Ltd., priority 2008, dated 2011).

The subject of the assay is osteoclast differentiation. Nature of the assay: Osteoclast differentiation in co-culture of mouse bone marrow cells and ST2 cells, TRAP staining (Examples 8-9). It counts as cell-based. The conditions noted are these: for % number of osteoclast (vs. solvent control group): 0.1 μM each, day 7; for activity at 0.1 µM: Mus musculus, Osteoclast, 168 h, Individual treatment (compounds), day 7, read-out: % number of osteoclast (vs. solvent control group). How it is done:
The differentiation of osteoclast from mouse bone marrow cells was induced by using co-culture system, and inhibitory effect of the drug on osteoclast differentiation was evaluated by treatment of single or combination formulation. Co-culture was performed using mouse bone marrow cells and ST cells of bone marrow-derived stromal cell.
Femora and tibia were aseptically ectomized from 6˜8 week-old male ddY mice to harvest bone marrow cells by a general method using a syringe. The red blood cells were removed from the bone marrow cells, followed by centrifugation. The bone marrow cells were suspended in α-MEM medium supplemented with 10% fetal bovine serum, and the numbers of the eukaryotic cells in the harvested bone marrow cells were counted and then immediately used for a co-culture system.
ST2 cells (RIKEN Cell Bank, Tsukuba, Japan) were cultured in α-MEM medium supplemented with 10% fetal bovine serum until confluent. Then, these cells were diluted to a desired cell number, and used for the experiment.
The bone marrow cells (1×10^5 cells/well) and ST2 cells (3,000 cells/well) prepared in the above were plated in a 96-well plate using α-MEM medium supplemented with 10% fetal bovine serum. At this time, differentiation factors, 1α,25-dihydroxyvitamin D3 (10^−8 M, hereinbelow, referred to as vitamin D3) and dexamethasone (10^−8 M), were co-added to the medium to induce osteoclast differentiation. The medium was replaced with fresh media containing the differentiation factors every 2 to 3 days.
After 7 days, when multinucleated osteoclasts were observed, the medium was removed from the wells, and then the cells were fixed with PBS containing 10% Formalin. Tartrate-Resistant Acid Phosphatase (hereinbelow, referred to as TRAP) was used as a marker to measure the mature osteoclast in consideration of its characteristics showing a positive reaction to a TRAP staining solution. The TRAP staining solution was prepared in such the manner that a substrate, naphtol AS-MS phosphate and a coloring agent (Fast Red Violet LB salt) were dissolved in N,N-dimethylformamide. A 0.1 N NaHCO3 buffer solution containing 50 mM tartaric acid was added thereto, and the mixture was stored at a refrigerator prior to use as a staining solution. The osteoclasts with 6-7 or more nuclei showing a TRAP-positive reaction were counted under a microscope.
Alendronic acid was dissolved in distilled water at a concentration of 0.1 mM, and benzamidine derivatives were dissolved in DMSO at a concentration of 0.1 mM. All of them were diluted 1,000 fold with the differentiation media to a final concentration of 0.1 μM, respectively. In this connection, a control group was maintained in 0.1% DMSO.
As the above described, the sample substances and cells, which were diluted to the desired concentrations, were plated in 96-well plate, and co-cultured. On days 3 and 5 of culture, the media were replaced with fresh differentiation media containing the sample substances. On day 7 of culture, TRAP staining was performed to count the mature multinucleated osteoclast that was formed by differentiation. The mature osteoclasts with 6 or more nuclei were counted under a microscope. The results were expressed as a percentage (%) of the number of mature osteoclast observed in each experimental group, when the number of mature osteoclast in the control group (solvent only) was regarded as 100%. The experiment was performed with 4 wells per experimental group (n=4), and the results were expressed as mean value±standard deviation. In addition, the experiment was repeated at least two times, and Student t-test was applied for significant difference between experimental groups.
The experiment was performed in the same manner as in Example 8 to evaluate the effect of individual or combination treatment of risedronic acid and benzamidine derivatives of Formula 1 on osteoclast differentiation, except using 0.1 μM risedronic acid instead of 0.1 μM alendronic acid. […]

[1] abbreviates: Combination treatment (alendronic acid + compounds).
Setting [2] is: Combination treatment (risedronic acid + compounds).

Marks after values point to notes of the source that are not given here.

As to `CN1CCN(CCc2sc(N3CCOCC3)nc2-c2ccc(OCCCCCOc3ccc(C(=N)NO)cc3)cc2)CC1` [Compound 274, N-hydroxy-4-[5-(4-{5-[2-(4-methyl-piperazin-1-yl)-ethyl]-2-morpholin-4-yl-thiazol-4-yl}-phenoxy)-pentyloxy]-benzamidine], the activity at 0.1 µM came to 65 ± 8.9%. Also, the “% number of osteoclast (vs. solvent control group)” value (“% number of osteoclast” below) under setting [1] is recorded as 31 ± 2.9^ab %. The “% number of osteoclast” value under setting [2] is reported as 13 ± 1.3^ac %.

Consider `Cc1nc(-c2ccc(OCCCCCOc3ccc(C(=N)NO)cc3)cc2)c(Cn2ccnc2)s1` [Compound 305, N-hydroxy-4-{5-[4-(5-imidazol-1-ylmethyl-2-methyl-thiazol-4-yl)-phenoxy]-pentyloxy}-benzamidine], for which the activity at 0.1 µM worked out at 58 ± 6.1%. Further, under setting [1], the “% number of osteoclast” value is 15 ± 4.8^ab %. In addition, under setting [2], the “% number of osteoclast” value is 11 ± 4.1^ac %.

With `Cc1nc(-c2ccc(OCCCCCOc3ccc(C(=N)NO)cc3)cc2)c(CNCc2ccccc2)s1` [Compound 306, N-hydroxy-4-(5-{4-[5-(benzylamino-methyl)-2-methyl-thiazol-4-yl]-phenoxy}-pentyloxy)-benzamidine], the activity at 0.1 µM came to 48 ± 6.4%. Moreover, the “% number of osteoclast” value under setting [1] is given as 18 ± 4.3^ab %. Besides, under setting [2], the “% number of osteoclast” value is listed as 16 ± 3.3^ac %.

Turning to `N=C(NO)c1ccc(OCCCCCOc2ccc(-c3nc(-c4ccccc4)sc3N)cc2)cc1` [Compound 330, N-hydroxy-4-{5-[4-(5-amino-2-phenyl-thiazol-4-yl)-phenoxy]-pentyloxy}-benzamidine], the activity at 0.1 µM stood at 46 ± 4.7%. Moreover, under setting [1], the “% number of osteoclast” value is listed as 23 ± 3.9^ab %. Also, under setting [2], the “% number of osteoclast” value was 12 ± 2.4^ac %.

Regarding `COCCNc1nc(-c2ccc(OCCCCCOc3ccc(C(=N)NO)cc3)cc2)c(C)s1` [Compound 94, N-hydroxy-4-{5-[4-(2-(2-methoxyethyl)amino-5-methyl-1,3-thiazol-4-yl)phenoxy]pentyloxy}-benzamidine], the activity at 0.1 µM was determined as 45 ± 3%. Besides, the “% number of osteoclast” value under setting [1] is on record as 20 ± 4.8^ab %. Further, the “% number of osteoclast” value under setting [2] is 16 ± 3.3^ac %.

Take `Cc1nc(-c2ccc(OCCCCCOc3ccc(C(=N)NO)cc3)cc2)c(N(C)C)s1` [Compound 326, N-hydroxy-4-{5-[4-(5-dimethylamino-2-methyl-thiazol-4-yl)-phenoxy]-pentyloxy}-benzamidine]: the activity at 0.1 µM was 46 ± 11%. Besides, the “% number of osteoclast” value under setting [1] is reported as 34 ± 2.7^b %. For the same compound, the “% number of osteoclast” value under setting [2] was 15 ± 6.0^ac %.

Turning to `CCc1sc(NC(=O)c2cccnc2)nc1-c1ccc(OCCCCCOc2ccc(C(=N)NO)cc2)cc1` [Compound 101, N-hydroxy-4-{5-[4-(5-ethyl-2-(3-pyridylcarbonyl)amino-1,3-thiazol-4-yl)phenoxy]pentyloxy}-benzamidine], the activity at 0.1 µM turned out to be 50 ± 5.9%. In addition, the “% number of osteoclast” value under setting [1] is 24 ± 3.2^ab %. Moreover, the “% number of osteoclast” value under setting [2] is reported as 18 ± 2.8^ac %.

With `Cc1nc(-c2ccc(OCCCCCOc3ccc(C(=N)NO)cc3)cc2)c(C(=O)NCCCn2ccnc2)s1` [Compound 284, N-hydroxy-4-{5-[4-(5-{3-imidazol-1-yl-propylcarbamoyl}-2-methyl-thiazol-4-yl)-phenoxy]-pentyloxy}-benzamidine], the activity at 0.1 µM came out at 73 ± 7.7%. The “% number of osteoclast” value under setting [1] is on record as 36 ± 5.0^ab %. For the same compound, under setting [2], the “% number of osteoclast” value is listed as 19 ± 5.8^ac %.

Regarding `N=C(NO)c1ccc(OCCCCCOc2ccc(-c3nc(N4CCOCC4)sc3N3CCOCC3)cc2)cc1` [Compound 290, N-hydroxy-4-{5-[4-(2,5-di-morpholin-4-yl-thiazol-4-yl)-phenoxy]-pentyloxy}-benzamidine], the activity at 0.1 µM stood at 52 ± 6.2%. Besides, the “% number of osteoclast” value under setting [1] is recorded as 23 ± 4.7^ab %. Also, under setting [2], the “% number of osteoclast” value was 12 ± 2.0^ac %.
